Here are results for three substances from PMC11809415 (The Journal of Cell Biology, 2025).

Data set [1] deals with F-actin. The settings on record: ref Melak et al., 2017; cited from earlier work. An excerpt:
Phalloidin, a cyclic peptide derived from the fungus Amanita phalloides, was one of the first probes used for F-actin labeling ([Wehland et al., 1977]; [Wulf et al., 1979]). […] The need to visualize actin dynamics led to the development of genetically encoded fluorescent probes. Chimeras of green fluorescent protein ... || In live cell imaging experiments, F-tractin is typically used as a fusion of fluorescent proteins. […] However, a comparison of both markers has been largely limited to characterizations in cells ([Belin et al., 2014]; [Spracklen et al., 2014]; [Vosatka et al., 2022]). With structures of both probes in complex with F-actin available, we can now directly compare their actin interactions in atomic detail (Fig. 4, A–C). Both probes are at their core amphipathic helices that bind to overlapping interfaces of consecutive actin subunits, indicating a preference for “aged” A ...

The conditions of data set [2]: ref Coluccio and Tilney, 1984; cited from earlier work. An excerpt:
Phalloidin, a cyclic peptide derived from the fungus Amanita phalloides, was one of the first probes used for F-actin labeling ([Wehland et al., 1977]; [Wulf et al., 1979]). […] The need to visualize actin dynamics led to the development of genetically encoded fluorescent probes. Chimeras of green fluorescent protein ...

Data set [3] has as its target F-actin. Kind of data set: High-speed cosedimentation with F-actin (120,000 g), SDS-PAGE densitometry. The class given is binding, rabbit skeletal muscle α-actin. The settings on record: for Fraction bound: 2 μM mCherry fusion. The method, then:
(§1) Rabbit skeletal muscle α-actin was purified from muscle acetone powder (Pel-Freez Biologicals) as described in [Merino et al. (2018)] and stored in 50 μl aliquots at −70°C.
A single colony was inoculated into 200 ml of LB media and grown at 37°C. At OD600 0.6–1.0, protein expression was induced by the addition of IPTG to a final concentration of 0.02 mM. After 16 h of expression at 22°C, the cells were harvested by centrifugation, resuspended in TBS (20 mM Tris pH 8 and 150 mM NaCl), and lysed by sonication. The soluble fraction was applied on TBS-equilibrated Protino Ni-IDA resin (Macherey-Nagel), washed, eluted with TBS supplemented with 250 mM imidazole, dialyzed against TBS, and stored at −20°C.
Freshly thawed mammalian α-actin was spun down at 120,000 g for 20 min at 4°C using a TLA-120.1 rotor, and the supernatant containing G-actin was collected. The protein was then polymerized by incubation in F buffer (120 mM KCl, 20 mM Tris pH 8, 2 mM MgCl2, 1 mM DTT, and 1 mM ATP) for 2 h on ice. Cosedimentation assays were performed in 20 μl volumes by first incubating F-actin with F-tractinopt-mCherry fusions for 5 min at room temperature and then centrifuging at 120,000 g using the TLA-120.1 rotor for 20 min at 4°C. After centrifugation, aliquots of the supernatant and resuspended pellet fractions were separated on SDS-polyacrylamide gels with 2,2,2-trichloroethanol ([Ladner-Keay et al., 2018]), visualized under ultraviolet light, and analyzed by densitometry using ImageJ (RRID:SCR_003070). The Kd values were calculated using GraphPad Prism software (RRID:SCR_002798).

Data set [4] relates to actin (ADP-ribosylation by TcART, Photorhabdus luminescens). Kind of data set: ADP-ribosylation of actin by TcART in presence of actin-binding peptides. The class given is biochemical, rabbit skeletal muscle α-actin. The conditions noted are these: for ADP-ribosylation level: relative to no peptide = 1, […] actin, 314 pM TcART, 10 min 37°C; for effect on TcART modification of F-actin (in words): peptides up to 100 µM. The method, then: as §1
TcART, the ADP-ribosyltransferase from P. luminescens Tc toxin, was purified from E. coli BL21-CodonPlus(DE3)-RIPL harboring the plasmid pB656 as described previously ([Belyy et al., 2022]).
A total of 8-μl mixtures of 2 μg (4.8 μM final concentration) actin and actin-binding peptides at specified concentrations were preincubated for 5 min at room temperature in the buffer containing 1 mM NAD, 20 mM Tris pH 8, 150 mM NaCl, and 1 mM MgCl2. The ADP ribosylation reaction was initiated by the addition of 0.2 ng (314 pM) of TcART to the mixture. After 10 min of incubation at 37°C, the reaction was stopped by adding Laemmli sample buffer and heating the sample at 95°C for 5 min. The components of the mixture were separated by SDS-PAGE, blotted onto a polyvinylidene difluoride (PVDF) membrane using a Trans-Blot Turbo Transfer System (Bio-Rad), and visualized using a combination of the His-tagged ADP-ribose binding protein at the concentration of 0.01 mg/ml and HisProbe-HRP conjugate. The level of actin ADP-ribosylation was quantified by densitometry using ImageJ.

Data set [5] deals with U-2 OS cells (phalloidin-stained actin). Description: Colocalization with phalloidin in U-2 OS cells (Pearson correlation). It is filed as cell-based, human. The conditions noted are these: EGFP fusions.
Data set [6] deals with F-actin. Kind of data set: Actin bundling assay using low-speed centrifugation (10,000 g). The class given is biochemical, rabbit skeletal muscle α-actin. The settings on record: 10 μM actin filaments, 5 min RT, 10,000 g. The method, then: as §1
8 μl of actin filaments at 10 μM were mixed with peptides at the specified concentration, incubated for 5 min at room temperature, and spun down at 10,000 g for 10 min at 4°C. Aliquots of the supernatant and resuspended pellet fractions were separated on SDS-polyacrylamide gels with 2,2,2-trichloroethanol ([Ladner-Keay et al., 2018]) and visualized with ultraviolet light.

The test system of a further data set is actin filaments. The settings on record: ref Belyy et al., 2020, Kumari et al.; cited from earlier work. The text has this:
(§2) To minimize steric clashes of large probes, small fluorophore-labeled peptides have been developed. The most commonly used is Lifeact, a 17-amino acid peptide derived from the N-terminus of the Saccharomyces cerevisiae actin-binding protein 140 (Abp140).

The subject of data set [7] is actin-dependent morphogenesis. The conditions noted are these: certain experimental systems: yeast, Drosophila, C. elegans, zebrafish, mammalian cells; ref Courtemanche et al., 2016; Spracklen et al., 2014; Ono, 2024; Xu and Du, 2021; Flores et al., 2019; cited from earlier work.
From the text: as §2

The term Kd denotes the concentration at which binding is half-saturated. A low value points to a tighter complex.

Consider Phalloidin, for which the “affinity and selectivity for F-actin” value with F-actin [1] is “high affinity and selectivity for F-actin”. Moreover, the membrane permeability entry in data set [2] is on record as “low membrane permeability”.

As to “APRRSVGELRLLAEARAASAA [F29A F-tractinopt, mCherry fusion in cosedimentation, EGFP fusion in cells]”, the Kd at F-actin [3] (2 μM probe as mCherry fusion, F-actin titrated, 5 min at room temperature, three independent experiments) was > 100 µM. The Fraction bound in the data set on F-actin [3] (F-actin 2 µM, Repeat 1) is given as 0,02963; with F-actin [3] (F-actin 2 µM, Repeat 2), 0,031317; in the data set on F-actin [3] (F-actin 2 µM, Repeat 3), 0,036; in the data set on F-actin [3] (F-actin 5 µM, Repeat 1), 0,020561; in the data set on F-actin [3] (F-actin 5 µM, Repeat 2), 0,008869; in the data set with F-actin [3] (F-actin 5 µM, Repeat 3) it was 0,001393. Also, the Fraction bound in the data set with F-actin [3] (F-actin 10 µM, Repeat 1) is 0,051546; with F-actin [3] (F-actin 10 µM, Repeat 2), 0,016783; with F-actin [3] (F-actin 10 µM, Repeat 3), 0,023887; in the data set on F-actin [3] (F-actin 20 µM, Repeat 1), 0,035971; with F-actin [3] (F-actin 20 µM, Repeat 2) it was 0,051087; in the data set with F-actin [3] (F-actin 20 µM, Repeat 3), 0,050633. Besides, the Fraction bound was 0,071269 in the data set on F-actin [3] (F-actin 40 µM, Repeat 1); 0,046373 in the data set with F-actin [3] (F-actin 40 µM, Repeat 2); 0,065217 in the data set with F-actin [3] (F-actin 40 µM, Repeat 3). Moreover, the “affinity for F-actin (in words)” value in the data set with F-actin [3] (cosedimentation, mCherry fusions of F-tractinopt variants) is given as “barely detectable in the pellet at the highest concentration of F-actin used”. For the same substance, the ADP-ribosylation level in data set [4] (peptide 100 µM, Repeat 1) is listed as 0,715886; in data set [4] (peptide 100 µM, Repeat 2), 1,144903; in data set [4] (peptide 100 µM, Repeat 3) it was 1,162086. Besides, the “effect on TcART modification of F-actin (in words)” value in data set [4] is reported as “did not interfere with TcART modification of F-actin”. Further, the “binding to actin in cells (in words)” value in data set [5] is given as “completely failed to bind to actin in cells”.

For the substance “Lifeact: 17-amino acid peptide derived from the N-terminus of Saccharomyces cerevisiae actin-binding protein 140 (Abp140) [reference compound]”, the “F-actin in the pellet” value with F-actin [6] (peptide 10 µM, Repeat 1) is given as 0,07218; in the data set on F-actin [6] (peptide 10 µM, Repeat 2) it was 0,09382; with F-actin [6] (peptide 10 µM, Repeat 3), 0,137443; with F-actin [6] (peptide 100 µM, Repeat 1), 0,1046; in the data set with F-actin [6] (peptide 100 µM, Repeat 2), 0,117135; in the data set with F-actin [6] (peptide 100 µM, Repeat 3) it was 0,14654. Also, the “F-actin in the pellet” value in the data set on F-actin [6] (peptide 1000 µM, Repeat 1) is 0,339777; in the data set on F-actin [6] (peptide 1000 µM, Repeat 2), 0,164721; in the data set on F-actin [6] (peptide 1000 µM, Repeat 3) it was 0,309232. The ADP-ribosylation level in data set [4] (peptide 1 µM, Repeat 1) is on record as 0,978733; in data set [4] (peptide 1 µM, Repeat 2), 0,811616; in data set [4] (peptide 1 µM, Repeat 3), 1,268379; in data set [4] (peptide 3 µM, Repeat 1), 0,825802; in data set [4] (peptide 3 µM, Repeat 2), 0,671345; in data set [4] (peptide 3 µM, Repeat 3) it was 1,323177. In addition, the ADP-ribosylation level in data set [4] (peptide 10 µM, Repeat 1) is 0,671724; in data set [4] (peptide 10 µM, Repeat 2) it was 1,132312; in data set [4] (peptide 10 µM, Repeat 3), 0,970817; in data set [4] (peptide 30 µM, Repeat 1), 0,313245; in data set [4] (peptide 30 µM, Repeat 2) it was 0,438167; in data set [4] (peptide 30 µM, Repeat 3), 0,331448. For the same substance, the ADP-ribosylation level in data set [4] (peptide 100 µM, Repeat 1) is recorded as 0; in data set [4] (peptide 100 µM, Repeat 2), 0,032044; in data set [4] (peptide 100 µM, Repeat 3) it was 0,093063. Moreover, the “effect on TcART modification of F-actin (in words)” value in data set [4] is reported as “inhibited TcART activity in a similar dose-dependent manner”. Moreover, in the data set with actin filaments, the “competition for binding site on actin filaments” value is “competes with cofilin, myosin, and other actin-binding factors for the same binding site on actin filaments”. For the same substance, the “effect on actin-dependent morphogenesis” value in data set [7] is “dramatically altered actin-dependent morphogenesis”.
